Results reported in the NIST ThermoML archive (doi:10.1021/je060271a).

Conditions: Liquid, Vibrating tube method

CCCCCCC(=O)OCC(COC(=O)CCCCCC)(COC(=O)CCCCCC)COC(=O)CCCCCC [pentaerythritol tetraheptanoate]
Conditions | mass density [kg/m3]
283.14 K, 28046 kPa | 1001
283.14 K, 28067 kPa | 1001
283.14 K, 28089 kPa | 1001.1
283.14 K, 28108 kPa | 1001.1
283.14 K, 28129 kPa | 1001.2
283.14 K, 28154 kPa | 1001.1
283.14 K, 28174 kPa | 1001.2
283.14 K, 28195 kPa | 1001.1
283.14 K, 28219 kPa | 1001
283.14 K, 28239 kPa | 1001.2
283.14 K, 28263 kPa | 1001.3
283.14 K, 28285 kPa | 1001.2
283.14 K, 28305 kPa | 1001.2
283.14 K, 28326 kPa | 1001.3
283.14 K, 28352 kPa | 1001.1
283.14 K, 28370 kPa | 1001.3
283.14 K, 28395 kPa | 1001.3
283.14 K, 28416 kPa | 1001.2
283.14 K, 28441 kPa | 1001.3
283.14 K, 28461 kPa | 1001.4
283.14 K, 28482 kPa | 1001.2
283.14 K, 28503 kPa | 1001.3
283.14 K, 28528 kPa | 1001.3
283.14 K, 28550 kPa | 1001.3
283.14 K, 28575 kPa | 1001.4
283.14 K, 28596 kPa | 1001.4
283.14 K, 28617 kPa | 1001.3
283.14 K, 28642 kPa | 1001.4
283.14 K, 28664 kPa | 1001.4
283.14 K, 28685 kPa | 1001.4
283.14 K, 28707 kPa | 1001.4
283.14 K, 28732 kPa | 1001.3
283.14 K, 28753 kPa | 1001.4
283.14 K, 28775 kPa | 1001.4
283.14 K, 28801 kPa | 1001.5
283.14 K, 28822 kPa | 1001.5
283.14 K, 28848 kPa | 1001.4
283.14 K, 28870 kPa | 1001.4
283.14 K, 28891 kPa | 1001.4
283.14 K, 28912 kPa | 1001.6
283.14 K, 28939 kPa | 1001.6
283.14 K, 28961 kPa | 1001.6
283.14 K, 28983 kPa | 1001.6
283.14 K, 29009 kPa | 1001.5
283.14 K, 29031 kPa | 1001.6
283.14 K, 29058 kPa | 1001.4
283.14 K, 29080 kPa | 1001.6
283.14 K, 29101 kPa | 1001.6
283.14 K, 29123 kPa | 1001.6
283.14 K, 29150 kPa | 1001.7
283.14 K, 29172 kPa | 1001.6
283.14 K, 29195 kPa | 1001.6
283.14 K, 29221 kPa | 1001.7
283.14 K, 29244 kPa | 1001.7
283.14 K, 29267 kPa | 1001.7
283.14 K, 29290 kPa | 1001.7
283.14 K, 29317 kPa | 1001.7
283.14 K, 29339 kPa | 1001.7
283.14 K, 29361 kPa | 1001.8
283.14 K, 29388 kPa | 1001.7
283.14 K, 29411 kPa | 1001.7
283.14 K, 29438 kPa | 1001.9
283.14 K, 29460 kPa | 1001.9
283.14 K, 29483 kPa | 1001.8
283.14 K, 29506 kPa | 1001.8
283.14 K, 29534 kPa | 1001.9
283.14 K, 29557 kPa | 1001.9
283.14 K, 29579 kPa | 1001.8
283.14 K, 29608 kPa | 1001.8
283.14 K, 29631 kPa | 1001.8
283.14 K, 29654 kPa | 1001.9
283.14 K, 29681 kPa | 1001.9
283.14 K, 29704 kPa | 1002
283.14 K, 29727 kPa | 1001.8
283.14 K, 29755 kPa | 1001.9
283.14 K, 29778 kPa | 1001.9
283.14 K, 29801 kPa | 1002
283.14 K, 29829 kPa | 1001.9
283.14 K, 29852 kPa | 1002
283.14 K, 29876 kPa | 1002
283.14 K, 29904 kPa | 1002
283.14 K, 29928 kPa | 1002
283.14 K, 29951 kPa | 1002
283.14 K, 29975 kPa | 1002
283.14 K, 30004 kPa | 1002
283.14 K, 30027 kPa | 1002
283.14 K, 30051 kPa | 1002
283.14 K, 30079 kPa | 1002
283.14 K, 30102 kPa | 1002.1
283.14 K, 30131 kPa | 1002.2
283.14 K, 30156 kPa | 1002.2
283.14 K, 30180 kPa | 1002.1
283.14 K, 30206 kPa | 1002.2
283.14 K, 30254 kPa | 1002.2
283.14 K, 30284 kPa | 1002.1
283.14 K, 30307 kPa | 1002.2
283.14 K, 30336 kPa | 1002.2
283.14 K, 30361 kPa | 1002.3
283.14 K, 30385 kPa | 1002.3
283.14 K, 30410 kPa | 1002.2
283.14 K, 30440 kPa | 1002.3
283.14 K, 30465 kPa | 1002.3
283.14 K, 30490 kPa | 1002.3
283.14 K, 30520 kPa | 1002.3
283.14 K, 30546 kPa | 1002.3
283.14 K, 30571 kPa | 1002.2
283.14 K, 30595 kPa | 1002.3
283.14 K, 30620 kPa | 1002.4
283.14 K, 30650 kPa | 1002.3
283.14 K, 30675 kPa | 1002.4
283.14 K, 30700 kPa | 1002.4
283.14 K, 30730 kPa | 1002.4
283.14 K, 30755 kPa | 1002.4
283.14 K, 30785 kPa | 1002.4
283.14 K, 30810 kPa | 1002.4
283.14 K, 30836 kPa | 1002.5
283.14 K, 30861 kPa | 1002.5
283.14 K, 30892 kPa | 1002.6
283.14 K, 30917 kPa | 1002.5
283.14 K, 30943 kPa | 1002.5
283.14 K, 30974 kPa | 1002.6
283.14 K, 30999 kPa | 1002.5
283.14 K, 31030 kPa | 1002.6
283.14 K, 31056 kPa | 1002.5
283.14 K, 31082 kPa | 1002.6
283.14 K, 31108 kPa | 1002.7
283.14 K, 31138 kPa | 1002.5
283.14 K, 31165 kPa | 1002.5
283.14 K, 31191 kPa | 1002.7
283.14 K, 31223 kPa | 1002.6
283.14 K, 31249 kPa | 1002.7
283.14 K, 31275 kPa | 1002.7
283.14 K, 31306 kPa | 1002.7
283.14 K, 31332 kPa | 1002.7
283.14 K, 31358 kPa | 1002.7
283.14 K, 31390 kPa | 1002.7
283.14 K, 31416 kPa | 1002.8
283.14 K, 31443 kPa | 1002.8
283.14 K, 31474 kPa | 1002.7
283.14 K, 31501 kPa | 1002.8
283.14 K, 31533 kPa | 1002.8
283.14 K, 31560 kPa | 1002.7
283.14 K, 31587 kPa | 1002.8
283.14 K, 31614 kPa | 1002.8
283.14 K, 31646 kPa | 1002.9
283.14 K, 31672 kPa | 1002.9
283.14 K, 31699 kPa | 1003
283.14 K, 31732 kPa | 1002.8
283.14 K, 31759 kPa | 1002.8
283.14 K, 31791 kPa | 1002.9
283.14 K, 31818 kPa | 1002.9
283.14 K, 31845 kPa | 1003
283.14 K, 31878 kPa | 1002.9
283.14 K, 31905 kPa | 1003.1
283.14 K, 31932 kPa | 1002.9
283.14 K, 31960 kPa | 1003
283.14 K, 31994 kPa | 1003
283.14 K, 32021 kPa | 1003
283.14 K, 32054 kPa | 1003.1
283.14 K, 32082 kPa | 1003
283.14 K, 32109 kPa | 1003.2
283.14 K, 32143 kPa | 1003.1
283.14 K, 32170 kPa | 1003.1
283.14 K, 32198 kPa | 1003.1
283.14 K, 32231 kPa | 1003.2
283.14 K, 32260 kPa | 1003.1
283.14 K, 32288 kPa | 1003.2
283.14 K, 32321 kPa | 1003.2
283.14 K, 32350 kPa | 1003.3
283.14 K, 32378 kPa | 1003.2
283.14 K, 32406 kPa | 1003.3
283.14 K, 32441 kPa | 1003.2
283.14 K, 32469 kPa | 1003.3
283.14 K, 32503 kPa | 1003.3
283.14 K, 32531 kPa | 1003.3
283.14 K, 32560 kPa | 1003.4
283.14 K, 32595 kPa | 1003.3
283.14 K, 32624 kPa | 1003.5
283.14 K, 32653 kPa | 1003.3
283.14 K, 32687 kPa | 1003.3
283.14 K, 32718 kPa | 1003.3
283.14 K, 32747 kPa | 1003.4
283.14 K, 32776 kPa | 1003.4
283.14 K, 32810 kPa | 1003.5
283.14 K, 32840 kPa | 1003.5
283.14 K, 32869 kPa | 1003.5
283.14 K, 32898 kPa | 1003.6
283.14 K, 32934 kPa | 1003.4
283.14 K, 32963 kPa | 1003.5
283.14 K, 32992 kPa | 1003.5
283.14 K, 33028 kPa | 1003.6
283.14 K, 33057 kPa | 1003.6
283.14 K, 33093 kPa | 1003.5
283.14 K, 33125 kPa | 1003.6
283.14 K, 33155 kPa | 1003.7
283.14 K, 33185 kPa | 1003.6
283.14 K, 33215 kPa | 1003.7
283.14 K, 33251 kPa | 1003.7
283.14 K, 33281 kPa | 1003.7
283.14 K, 33311 kPa | 1003.6
283.14 K, 33347 kPa | 1003.7
283.14 K, 33377 kPa | 1003.6
283.14 K, 33414 kPa | 1003.7
283.14 K, 33444 kPa | 1003.8
283.14 K, 33474 kPa | 1003.8
283.14 K, 33511 kPa | 1003.8
283.14 K, 33542 kPa | 1003.9
283.14 K, 33572 kPa | 1003.8
283.14 K, 33604 kPa | 1003.8
283.14 K, 33641 kPa | 1003.9
283.14 K, 33671 kPa | 1003.9
283.14 K, 33708 kPa | 1003.8
283.14 K, 33739 kPa | 1003.8
283.14 K, 33770 kPa | 1003.8
283.14 K, 33808 kPa | 1004
283.14 K, 33839 kPa | 1004
283.14 K, 33870 kPa | 1003.9
283.14 K, 33907 kPa | 1004
283.14 K, 33938 kPa | 1003.9
283.14 K, 34406 kPa | 1004.3
283.14 K, 34575 kPa | 1004.3
283.14 K, 34576 kPa | 1004.3
283.15 K, 100.4 kPa | 985.9
